The target of this test is human GluN1/GluN2B NMDA receptors (Homo sapiens, UniProt Q05586+Q13224). The test can be described thus: Cell-based calcium flux (FLIPR) assay on cloned human NR1/NR2B ion channels expressed in mammalian cells. Particulars: standard assay; glutamate at ~EC80; FLIPR calcium flux. In a few lines:
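Calcium influx followed by FLIPR fluorescence after 5 min compound exposure and a further 5 min co-agonist challenge: 10 μM glycine with glutamate at ~EC80 (standard) or EC40 (HTS).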
Background: Calcium flux is commonly read through the fluorescence of an indicator in the cells.
Chain of human GluN1/GluN2B NMDA receptors (Q13224 27-1484, other chains not shown): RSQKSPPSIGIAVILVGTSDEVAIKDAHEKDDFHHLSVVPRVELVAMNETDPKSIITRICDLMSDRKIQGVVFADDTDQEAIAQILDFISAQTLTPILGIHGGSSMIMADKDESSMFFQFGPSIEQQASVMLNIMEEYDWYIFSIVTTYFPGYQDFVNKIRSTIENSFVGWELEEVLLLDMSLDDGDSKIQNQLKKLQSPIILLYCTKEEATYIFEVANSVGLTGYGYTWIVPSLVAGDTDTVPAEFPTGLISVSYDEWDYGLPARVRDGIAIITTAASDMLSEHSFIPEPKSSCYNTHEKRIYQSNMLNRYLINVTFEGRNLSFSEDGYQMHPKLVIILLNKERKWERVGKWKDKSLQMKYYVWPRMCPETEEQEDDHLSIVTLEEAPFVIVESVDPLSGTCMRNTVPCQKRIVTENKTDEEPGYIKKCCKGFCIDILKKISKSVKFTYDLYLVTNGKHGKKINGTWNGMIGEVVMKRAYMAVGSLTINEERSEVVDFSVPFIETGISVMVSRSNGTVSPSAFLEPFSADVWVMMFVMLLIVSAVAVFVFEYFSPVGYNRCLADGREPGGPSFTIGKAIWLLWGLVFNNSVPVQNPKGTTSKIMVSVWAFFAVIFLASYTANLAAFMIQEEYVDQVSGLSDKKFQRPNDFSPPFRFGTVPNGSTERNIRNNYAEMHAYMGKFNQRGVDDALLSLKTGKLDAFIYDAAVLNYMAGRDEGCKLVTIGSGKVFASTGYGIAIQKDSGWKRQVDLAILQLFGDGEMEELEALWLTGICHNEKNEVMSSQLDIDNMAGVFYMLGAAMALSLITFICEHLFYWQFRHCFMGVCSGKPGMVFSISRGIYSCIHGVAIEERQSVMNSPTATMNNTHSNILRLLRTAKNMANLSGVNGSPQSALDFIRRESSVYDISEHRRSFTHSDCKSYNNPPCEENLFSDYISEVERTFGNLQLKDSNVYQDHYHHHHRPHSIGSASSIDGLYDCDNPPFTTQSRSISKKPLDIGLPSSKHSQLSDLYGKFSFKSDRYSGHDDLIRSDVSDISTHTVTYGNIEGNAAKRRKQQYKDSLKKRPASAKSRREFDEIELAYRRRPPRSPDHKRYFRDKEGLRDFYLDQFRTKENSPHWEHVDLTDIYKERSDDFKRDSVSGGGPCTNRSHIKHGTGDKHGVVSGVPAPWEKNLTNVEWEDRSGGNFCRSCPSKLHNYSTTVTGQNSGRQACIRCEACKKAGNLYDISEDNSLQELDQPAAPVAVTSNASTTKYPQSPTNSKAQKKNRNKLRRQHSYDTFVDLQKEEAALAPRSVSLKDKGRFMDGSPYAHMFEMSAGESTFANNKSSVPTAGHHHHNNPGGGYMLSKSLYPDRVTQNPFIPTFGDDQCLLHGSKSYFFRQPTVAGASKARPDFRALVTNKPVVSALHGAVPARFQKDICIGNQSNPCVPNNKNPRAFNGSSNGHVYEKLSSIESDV
The term IC50 denotes the point on the concentration scale where inhibition reaches its midpoint. For `Cc1ccc(-n2cc(COc3ncc(C)c(N)n3)nn2)cc1OC(F)F` [Example 521, 2-[[1-[3-(Difluoromethoxy)-4-methyl-phenyl]triazol-4-yl]methoxy]-5-methyl-pyrimidin-4-amine], the IC50 turned out to be 0.021 µM.
As for `CC(=O)c1cnc(OCc2cn(-c3ccc(C)c(OC(F)F)c3)nn2)nc1` [Example 522, 1-[2-[[1-[3-(Difluoromethoxy)-4-methyl-phenyl]triazol-4-yl]methoxy]pyrimidin-5-yl]ethanone], the IC50 was 0.093 µM.
In the case of `Cc1ccnc(OCc2cn(-c3ccc(C)c(OC(F)F)c3)nn2)n1` [Example 523, 2-[[1-[3-(Difluoromethoxy)-4-methyl-phenyl]triazol-4-yl]methoxy]-4-methyl-pyrimidine], the IC50 amounted to 0.114 µM.
`Cc1cnc(OCc2cn(-c3ccc(C)c(OC(F)F)c3)nn2)nc1` [Example 524, 2-[[1-[3-(Difluoromethoxy)-4-methyl-phenyl]triazol-4-yl]methoxy]-5-methyl-pyrimidine]: the IC50 amounted to 0.028 µM.
For the compound `Cc1ccc(-n2cc(COc3ncc(Br)cn3)nn2)cc1OC(F)F` [Example 525, 5-Bromo-2-[[1-[3-(difluoromethoxy)-4-methyl-phenyl]triazol-4-yl]methoxy]pyrimidine], the IC50 came out at 0.04 µM.
`Cc1ccc(-n2cc(COc3ncc(C(C)(C)O)cn3)nn2)cc1OC(F)F` [Example 526, 2-[2-[[1-[3-(Difluoromethoxy)-4-methyl-phenyl]triazol-4-yl]methoxy]pyrimidin-5-yl]propan-2-ol]: the IC50 stood at 0.425 µM.
Consider `COCc1ccnc(OCc2cn(-c3ccc(C)c(OC(F)F)c3)nn2)n1` [Example 527, 2-[[1-[3-(Difluoromethoxy)-4-methyl-phenyl]triazol-4-yl]methoxy]-4-(methoxymethyl)pyrimidine], for which the IC50 worked out at 0.132 µM.
For `Cc1cnc(OCc2nnn(-c3cccc(C(F)F)c3)c2C)nc1C` [Example 528, 2-[[1-[3-(Difluoromethyl)phenyl]-5-methyl-triazol-4-yl]methoxy]-4,5-dimethyl-pyrimidine], the IC50 came to 0.752 µM.
With `Cc1c(COc2ncc(Cl)cn2)nnn1-c1cccc(C(F)F)c1` [Example 529, 5-Chloro-2-[[1-[3-(difluoromethyl)phenyl]-5-methyl-triazol-4-yl]methoxy]pyrimidine] the figure was 1.32 µM; with `Cc1cnc(OCc2cn(-c3ccc(Cl)c(C(C)(F)F)c3)nn2)nc1` [Example 530, 2-[[1-[4-Chloro-3-(1,1-difluoroethyl)phenyl]triazol-4-yl]methoxy]-5-methyl-pyrimidine], 0.005 µM.
In the case of `Cc1ccnc(OCc2cn(-c3ccc(Cl)c(C(C)(F)F)c3)nn2)n1` [Example 531, 2-[[1-[4-Chloro-3-(1,1-difluoroethyl)phenyl]triazol-4-yl]methoxy]-4-methyl-pyrimidine] it was 0.017 µM.
`CC(C)(O)c1cnc(OCc2cn(-c3ccc(Cl)c(C(C)(F)F)c3)nn2)nc1` [Example 532, 2-[2-[[1-[4-Chloro-3-(1,1-difluoroethyl)phenyl]triazol-4-yl]methoxy]pyrimidin-5-yl]propan-2-ol]: the IC50 came out at 0.081 µM.
With `CC(F)(F)c1cc(-n2cc(COc3ncc(CO)cn3)nn2)ccc1Cl` [Example 533, [2-[[1-[4-Chloro-3-(1,1-difluoroethyl)phenyl]triazol-4-yl]methoxy]pyrimidin-5-yl]methanol], the IC50 is 0.017 µM.
With `CC(F)(F)c1cc(-n2cc(COc3ncc(C(F)F)cn3)nn2)ccc1Cl` [Example 535, 2-[[1-[4-Chloro-3-(1,1-difluoroethyl)phenyl]triazol-4-yl]methoxy]-5-(difluoromethyl)pyrimidine] the figure was 0.009 µM.
With `CC(F)(F)c1cc(-n2cc(COc3nccc(C(F)F)n3)nn2)ccc1Cl` [Example 536, 2-[[1-[4-Chloro-3-(1,1-difluoroethyl)phenyl]triazol-4-yl]methoxy]-4-(difluoromethyl)pyrimidine] the figure was 0.067 µM.
On to `CC(F)(F)c1cc(-n2cc(COc3ncc(C(F)(F)F)cn3)nn2)ccc1Cl` [Example 537, 2-[[1-[4-Chloro-3-(1,1-difluoroethyl)phenyl]triazol-4-yl]methoxy]-5-(trifluoromethyl)pyrimidine], for which the IC50 came to 0.016 µM.
As for `CC(F)(F)c1cc(-n2cc(COc3nccc(C(F)(F)F)n3)nn2)ccc1Cl` [Example 538, 2-[[1-[4-Chloro-3-(1,1-difluoroethyl)phenyl]triazol-4-yl]methoxy]-4-(trifluoromethyl)pyrimidine], the IC50 was determined as 0.318 µM.
In the case of `CC(F)(F)c1cc(-n2cc(COc3nccc(CO)n3)nn2)ccc1Cl` [Example 540, [2-[[1-[4-Chloro-3-(1,1-difluoroethyl)phenyl]triazol-4-yl]methoxy]pyrimidin-4-yl]methanol] it was 0.019 µM; in that of `COc1ccnc(OCc2cn(-c3ccc(Cl)c(C(C)(F)F)c3)nn2)n1` [Example 541, 2-[[1-[4-Chloro-3-(1,1-difluoroethyl)phenyl]triazol-4-yl]methoxy]-4-methoxy-pyrimidine], 0.012 µM; in that of `CC(F)(F)c1cc(-n2cc(COc3ncc(OC(F)F)cn3)nn2)ccc1Cl` [Example 542, 2-[[1-[4-Chloro-3-(1,1-difluoroethyl)phenyl]triazol-4-yl]methoxy]-5-(difluoromethoxy)pyrimidine], 0.012 µM.
As for `Cc1nc(OCc2cn(-c3ccc(Cl)c(C(C)(F)F)c3)nn2)ncc1Cl` [Example 543, 5-Chloro-2-[[1-[4-chloro-3-(1,1-difluoroethyl)phenyl]triazol-4-yl]methoxy]-4-methyl-pyrimidine], the IC50 worked out at 0.015 µM.
For the compound `Cc1nc(OCc2cn(-c3ccc(Cl)c(C(C)(F)F)c3)nn2)ncc1F` [Example 544, 2-[[1-[4-Chloro-3-(1,1-difluoroethyl)phenyl]triazol-4-yl]methoxy]-5-fluoro-4-methyl-pyrimidine], the IC50 came out at 0.015 µM.
With `Cc1cnc(OCc2cn(-c3ccc(Cl)c(C(C)(F)F)c3)nn2)nc1C` [Example 545, 2-[[1-[4-Chloro-3-(1,1-difluoroethyl)phenyl]triazol-4-yl]methoxy]-4,5-dimethyl-pyrimidine], the IC50 is 0.006 µM.
On to `Cc1cc(C)nc(OCc2cn(-c3ccc(Cl)c(C(C)(F)F)c3)nn2)n1` [Example 546, 2-[[1-[4-Chloro-3-(1,1-difluoroethyl)phenyl]triazol-4-yl]methoxy]-4,6-dimethyl-pyrimidine], for which the IC50 is 0.024 µM.
With `CC(F)(F)c1cc(-n2cc(COc3nccc(N)n3)nn2)ccc1Cl` [Example 547, 2-[[1-[4-Chloro-3-(1,1-difluoroethyl)phenyl]triazol-4-yl]methoxy]pyrimidin-4-amine] the figure was 0.033 µM.
Take `CNc1ccnc(OCc2cn(-c3ccc(Cl)c(C(C)(F)F)c3)nn2)n1` [Example 548, 2-[[1-[4-Chloro-3-(1,1-difluoroethyl)phenyl]triazol-4-yl]methoxy]-N-methyl-pyrimidin-4-amine]: the IC50 worked out at 0.055 µM.
On to `CNc1nc(OCc2cn(-c3ccc(Cl)c(C(C)(F)F)c3)nn2)ncc1F` [Example 549, 2-[[1-[4-Chloro-3-(1,1-difluoroethyl)phenyl]triazol-4-yl]methoxy]-5-fluoro-N-methyl-pyrimidin-4-amine], for which the IC50 was determined as 0.094 µM.
In the case of `CC(=O)c1cnc(OCc2cn(-c3ccc(Cl)c(C(C)(F)F)c3)nn2)nc1` [Example 550, 1-[2-[[1-[4-Chloro-3-(1,1-difluoroethyl)phenyl]triazol-4-yl]methoxy]pyrimidin-5-yl]ethanone] it was 0.016 µM; in that of `CC(F)(F)c1cc(-n2cc(COc3ncc(C4CC4)cn3)nn2)ccc1Cl` [Example 552, 2-[[1-[4-Chloro-3-(1,1-difluoroethyl)phenyl]triazol-4-yl]methoxy]-5-cyclopropyl-pyrimidine], 0.086 µM.
Consider `CC(F)(F)c1cc(-n2cc(COc3nccc(N4CCCC4)n3)nn2)ccc1Cl` [Example 553, 2-[[1-[4-Chloro-3-(1,1-difluoroethyl)phenyl]triazol-4-yl]methoxy]-4-pyrrolidin-1-yl-pyrimidine], for which the IC50 is 0.043 µM.
As for `CC(F)(F)c1cc(-n2cc(COc3ccccn3)nn2)ccc1F` [Example 554, 2-[[1-[3-(1,1-Difluoroethyl)-4-fluoro-phenyl]triazol-4-yl]methoxy]pyridine], the IC50 stood at 1.64 µM.
On to `CC(F)(F)c1cc(-n2cc(COc3ncccc3F)nn2)ccc1F` [Example 555, 2-[[1-[3-(1,1-Difluoroethyl)-4-fluoro-phenyl]triazol-4-yl]methoxy]-3-fluoro-pyridine], for which the IC50 was 0.265 µM.
With `Cc1cccc(OCc2cn(-c3ccc(F)c(C(C)(F)F)c3)nn2)n1` [Example 556, 2-[[1-[3-(1,1-Difluoroethyl)-4-fluoro-phenyl]triazol-4-yl]methoxy]-6-methyl-pyridine] the figure was 0.098 µM.
In the case of `Cc1ccnc(OCc2cn(-c3ccc(F)c(C(C)(F)F)c3)nn2)c1` [Example 557, 2-[[1-[3-(1,1-Difluoroethyl)-4-fluoro-phenyl]triazol-4-yl]methoxy]-4-methyl-pyridine], the IC50 turned out to be 0.246 µM.
With `Cc1ccc(OCc2cn(-c3ccc(F)c(C(C)(F)F)c3)nn2)nc1` [Example 558, 2-[[1-[3-(1,1-Difluoroethyl)-4-fluoro-phenyl]triazol-4-yl]methoxy]-5-methyl-pyridine] the figure was 0.125 µM; with `CC(F)(F)c1cc(-n2cc(COc3ccc(C(F)(F)F)cn3)nn2)ccc1F` [Example 559, 2-[[1-[3-(1,1-Difluoroethyl)-4-fluoro-phenyl]triazol-4-yl]methoxy]-5-(trifluoromethyl)pyridine], 0.812 µM.
In the case of `Cc1ccc(OCc2cn(-c3ccc(F)c(C(C)(F)F)c3)nn2)nc1C` [Example 560, 6-[[1-[3-(1,1-Difluoroethyl)-4-fluoro-phenyl]triazol-4-yl]methoxy]-2,3-dimethyl-pyridine] it was 0.052 µM; in that of `COc1ncccc1OCc1cn(-c2ccc(F)c(C(C)(F)F)c2)nn1` [Example 561, 3-[[1-[3-(1,1-Difluoroethyl)-4-fluoro-phenyl]triazol-4-yl]methoxy]-2-methoxy-pyridine], 0.476 µM.

These data come from patent publication US10233173B2, “Substituted 1,2,3-triazoles as NR2B-selective NMDA modulators” (JANSSEN PHARMACEUTICA NV, priority 2016, dated 2019).
